In US20210206758A1, “NAPHTHYRIDINES AS INTEGRIN ANTAGONISTS” (GlaxoSmithKline Intellectual Property Development Limited, priority 2016, published 2021):
“And” between values parts separate entries of the source, which are not always exact repeats. Identical values can stand only once.

Assays:
Format in all cases: cell-based
[1] = biological target: T1, αvβ6 (Homo sapiens, UniProt P06756+P18564); test: Cell adhesion assay, K562-αvβ6 (LAP-b1); conditions: K562-αvβ6 cells, ligand LAP-b1, 2 mM MgCl2; for IC50: mean, read-out: αvβ6 pIC50 (mean affinity, cell Adhesion Assay) (converted)
T1 construct: expressed in transfected cells; host or cells: K562
T1 sequence (P06756 31-889 limits assumed): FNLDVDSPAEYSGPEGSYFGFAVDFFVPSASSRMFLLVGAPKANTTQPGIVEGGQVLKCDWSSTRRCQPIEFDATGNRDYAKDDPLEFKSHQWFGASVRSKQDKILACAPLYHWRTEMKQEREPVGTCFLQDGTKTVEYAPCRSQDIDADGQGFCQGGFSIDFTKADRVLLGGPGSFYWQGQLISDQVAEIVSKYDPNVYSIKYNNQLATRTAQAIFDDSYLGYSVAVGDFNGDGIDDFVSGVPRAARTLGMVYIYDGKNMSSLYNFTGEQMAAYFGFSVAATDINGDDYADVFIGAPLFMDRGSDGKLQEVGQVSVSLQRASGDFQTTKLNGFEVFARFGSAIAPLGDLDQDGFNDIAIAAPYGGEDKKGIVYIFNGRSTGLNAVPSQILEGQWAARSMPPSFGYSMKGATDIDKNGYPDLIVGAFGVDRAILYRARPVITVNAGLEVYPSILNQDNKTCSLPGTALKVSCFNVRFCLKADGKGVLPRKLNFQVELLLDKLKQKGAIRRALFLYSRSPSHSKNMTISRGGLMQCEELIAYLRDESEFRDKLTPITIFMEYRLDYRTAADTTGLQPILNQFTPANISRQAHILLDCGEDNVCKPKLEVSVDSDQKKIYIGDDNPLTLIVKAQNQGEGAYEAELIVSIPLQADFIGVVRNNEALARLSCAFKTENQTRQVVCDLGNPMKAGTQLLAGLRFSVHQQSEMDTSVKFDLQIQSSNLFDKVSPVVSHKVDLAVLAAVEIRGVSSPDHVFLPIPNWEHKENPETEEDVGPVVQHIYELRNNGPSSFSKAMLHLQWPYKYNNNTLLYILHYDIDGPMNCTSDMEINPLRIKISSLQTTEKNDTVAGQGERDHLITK
T1 sequence (P06756 891-1048 partner limits assumed): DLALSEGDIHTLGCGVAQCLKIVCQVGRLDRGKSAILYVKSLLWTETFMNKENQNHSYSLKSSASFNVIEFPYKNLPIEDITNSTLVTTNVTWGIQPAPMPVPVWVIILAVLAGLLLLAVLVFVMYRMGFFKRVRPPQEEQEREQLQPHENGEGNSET
T1 sequence (P18564 22-788): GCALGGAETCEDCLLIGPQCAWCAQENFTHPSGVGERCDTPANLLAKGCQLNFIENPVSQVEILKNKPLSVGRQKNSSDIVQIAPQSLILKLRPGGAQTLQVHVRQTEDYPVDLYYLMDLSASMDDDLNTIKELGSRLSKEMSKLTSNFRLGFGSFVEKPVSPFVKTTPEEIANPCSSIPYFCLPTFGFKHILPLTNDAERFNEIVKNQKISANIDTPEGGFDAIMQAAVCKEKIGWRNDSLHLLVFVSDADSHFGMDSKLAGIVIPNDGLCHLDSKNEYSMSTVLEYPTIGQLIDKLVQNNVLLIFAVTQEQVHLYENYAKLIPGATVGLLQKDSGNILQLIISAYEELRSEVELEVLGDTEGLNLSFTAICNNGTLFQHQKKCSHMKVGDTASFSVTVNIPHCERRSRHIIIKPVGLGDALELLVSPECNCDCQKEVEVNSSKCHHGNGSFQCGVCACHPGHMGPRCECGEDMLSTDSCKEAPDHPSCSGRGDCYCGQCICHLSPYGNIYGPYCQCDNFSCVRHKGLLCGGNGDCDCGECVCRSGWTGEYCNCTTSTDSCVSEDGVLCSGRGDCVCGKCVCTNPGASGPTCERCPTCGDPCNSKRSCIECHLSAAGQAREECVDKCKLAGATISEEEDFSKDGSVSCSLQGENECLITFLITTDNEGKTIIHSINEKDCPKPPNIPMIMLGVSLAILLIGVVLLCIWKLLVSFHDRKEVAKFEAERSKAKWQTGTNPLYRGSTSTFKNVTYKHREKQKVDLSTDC
Method: (§1) Reagents and methods utilised are as described [Ludbrook et al, Biochem. J. 2003, 369, 311 and Macdonald et al. ACS Med. Chem. Lett. 2014, 5, 1207-1212 for αvβ8 assay), with the following points of clarification. The following cell lines are used, with ligands in brackets: K562-αvβ3 (LAP-b1), K562-αvβ5 (Vitronectin), K562-αvβ6 (LAP-b1), K562-αvβ8 (LAP-b1), A549-αvβ1 (LAP-b1). The divalent cation used to facilitate adhesion is 2 mM MgCl2. Adhesion is quantified by cell labelling with the fluorescent dye BCECF-AM (Life Technologies), where cell suspensions at 3×10^6 cells/mL are incubated with 0.33 uL/mL of 30 mM BCECF-AM at 37° C. for 10 minutes, then 50 μL/well are dispensed into the 96-well assay plate. At the assay conclusion cells that adhered are lysed using 50 μL/well of 0.5% Triton X-100 in H2O to release fluorescence. Fluorescence intensity is detected using an Envision® plate reader (Perkin Elmer). For active antagonists in the assay, data is fitted to a 4 parameter logistic equation for IC50 determinations.

[2] = biological target: T2, αvβ8 (Homo sapiens, UniProt P06756+P26012); test: Cell adhesion assay, K562-αvβ8 (LAP-b1); conditions: K562-αvβ8 cells, ligand LAP-b1, 2 mM MgCl2; for IC50: mean, read-out: αvβ8 pIC50 (mean affinity, cell Adhesion Assay) (converted)
T2 construct: expressed in transfected cells; host or cells: K562
T2 sequence (P06756 31-889 limits assumed): as the sequence (P06756 31-889 limits assumed) above
T2 sequence (P06756 891-1048 partner limits assumed): as the sequence (P06756 891-1048 partner limits assumed) above
T2 sequence (P26012 43-769): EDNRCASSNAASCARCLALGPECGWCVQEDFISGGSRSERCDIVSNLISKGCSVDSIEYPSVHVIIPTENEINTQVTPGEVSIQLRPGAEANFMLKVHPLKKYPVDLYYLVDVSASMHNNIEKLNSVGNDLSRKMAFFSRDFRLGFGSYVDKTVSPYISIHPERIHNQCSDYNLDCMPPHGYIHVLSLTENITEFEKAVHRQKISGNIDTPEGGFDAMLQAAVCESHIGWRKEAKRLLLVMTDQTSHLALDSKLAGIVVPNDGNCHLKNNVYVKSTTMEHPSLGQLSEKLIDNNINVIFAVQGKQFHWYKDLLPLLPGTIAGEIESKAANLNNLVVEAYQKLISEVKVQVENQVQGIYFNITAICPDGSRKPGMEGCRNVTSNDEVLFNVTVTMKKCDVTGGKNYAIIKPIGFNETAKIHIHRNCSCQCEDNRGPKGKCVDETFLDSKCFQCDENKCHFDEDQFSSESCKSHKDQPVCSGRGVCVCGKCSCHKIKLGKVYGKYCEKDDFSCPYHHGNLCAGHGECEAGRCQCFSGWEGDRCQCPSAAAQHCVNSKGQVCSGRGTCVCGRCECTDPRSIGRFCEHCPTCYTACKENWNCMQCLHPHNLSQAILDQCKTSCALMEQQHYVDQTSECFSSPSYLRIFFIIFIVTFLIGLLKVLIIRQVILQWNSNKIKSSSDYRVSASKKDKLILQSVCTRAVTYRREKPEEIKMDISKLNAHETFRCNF
Method: as §1

[3] = biological target: T3, αvβ1 (Homo sapiens, UniProt P05556+P06756); test: Cell adhesion assay, A549-αvβ1 (LAP-b1); conditions: A549-αvβ1 cells, ligand LAP-b1, 2 mM MgCl2; for IC50: mean, read-out: αvβ1 pIC50 (mean affinity, cell Adhesion Assay) (converted)
T3 construct: host or cells: A549
T3 sequence (P06756 31-889 limits assumed): as the sequence (P06756 31-889 limits assumed) above
T3 sequence (P06756 891-1048 partner limits assumed): as the sequence (P06756 891-1048 partner limits assumed) above
T3 sequence (P05556 21-798): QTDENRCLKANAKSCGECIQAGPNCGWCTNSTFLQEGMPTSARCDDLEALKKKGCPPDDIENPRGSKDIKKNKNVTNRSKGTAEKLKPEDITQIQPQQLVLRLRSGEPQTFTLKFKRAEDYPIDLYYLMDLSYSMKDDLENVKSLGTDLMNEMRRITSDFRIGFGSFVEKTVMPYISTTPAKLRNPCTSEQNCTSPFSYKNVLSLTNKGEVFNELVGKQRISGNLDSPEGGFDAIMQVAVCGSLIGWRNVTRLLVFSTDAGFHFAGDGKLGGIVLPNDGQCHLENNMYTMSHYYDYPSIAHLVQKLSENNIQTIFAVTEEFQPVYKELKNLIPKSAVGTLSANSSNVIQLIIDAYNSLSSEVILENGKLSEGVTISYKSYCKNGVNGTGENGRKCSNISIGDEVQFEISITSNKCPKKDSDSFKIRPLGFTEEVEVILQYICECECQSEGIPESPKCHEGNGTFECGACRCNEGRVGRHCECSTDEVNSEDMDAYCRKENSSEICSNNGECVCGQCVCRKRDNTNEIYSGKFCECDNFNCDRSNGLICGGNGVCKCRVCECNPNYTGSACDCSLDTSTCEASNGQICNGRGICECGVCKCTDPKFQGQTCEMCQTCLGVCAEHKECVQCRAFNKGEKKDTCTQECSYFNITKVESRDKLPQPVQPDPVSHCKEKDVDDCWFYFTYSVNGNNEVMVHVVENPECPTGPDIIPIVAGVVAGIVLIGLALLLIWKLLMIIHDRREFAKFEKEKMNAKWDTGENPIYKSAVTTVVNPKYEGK
Method: as §1

[4] = biological target: T4, αvβ5 (Homo sapiens, UniProt P06756+P18084); test: Cell adhesion assay, K562-αvβ5 (Vitronectin); conditions: K562-αvβ5 cells, ligand Vitronectin, 2 mM MgCl2; for IC50: mean, read-out: αvβ5 pIC50 (mean affinity, cell Adhesion Assay) (converted)
T4 construct: expressed in transfected cells; host or cells: K562
Method: as §1

[5] = biological target: T5, αvβ3 (Homo sapiens, UniProt P05106+P06756); test: Cell adhesion assay, K562-αvβ3 (LAP-b1); conditions: K562-αvβ3 cells, ligand LAP-b1, 2 mM MgCl2; for IC50: mean, read-out: αvβ3 pIC50 (mean affinity, cell Adhesion Assay) (converted)
T5 construct: expressed in transfected cells; host or cells: K562
T5 sequence (P06756 31-889 limits assumed): as the sequence (P06756 31-889 limits assumed) above
T5 sequence (P06756 891-1048 partner limits assumed): as the sequence (P06756 891-1048 partner limits assumed) above
T5 sequence (P05106 27-788): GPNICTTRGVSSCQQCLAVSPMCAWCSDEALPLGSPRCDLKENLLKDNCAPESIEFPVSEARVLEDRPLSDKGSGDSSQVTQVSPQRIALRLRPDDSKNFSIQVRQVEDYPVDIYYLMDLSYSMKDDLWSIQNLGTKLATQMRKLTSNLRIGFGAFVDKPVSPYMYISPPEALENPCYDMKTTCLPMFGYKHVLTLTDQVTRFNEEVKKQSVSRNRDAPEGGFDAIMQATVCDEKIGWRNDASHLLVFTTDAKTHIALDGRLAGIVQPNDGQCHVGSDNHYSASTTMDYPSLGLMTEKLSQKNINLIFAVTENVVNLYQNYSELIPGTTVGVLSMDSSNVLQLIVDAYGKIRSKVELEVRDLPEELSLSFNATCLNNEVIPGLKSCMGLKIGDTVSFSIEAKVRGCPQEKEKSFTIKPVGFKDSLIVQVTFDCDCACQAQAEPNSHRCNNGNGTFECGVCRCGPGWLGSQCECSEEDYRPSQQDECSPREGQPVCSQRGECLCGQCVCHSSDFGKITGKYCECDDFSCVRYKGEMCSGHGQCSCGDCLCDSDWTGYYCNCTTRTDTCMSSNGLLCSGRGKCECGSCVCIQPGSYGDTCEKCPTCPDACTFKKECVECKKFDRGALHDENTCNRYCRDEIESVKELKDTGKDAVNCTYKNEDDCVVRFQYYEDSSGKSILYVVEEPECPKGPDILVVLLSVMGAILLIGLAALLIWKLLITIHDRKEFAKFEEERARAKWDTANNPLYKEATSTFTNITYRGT
Method: as §1

IC50 [1]	IC50 [2] [nM]	IC50 [3] [nM]	IC50 [4] [nM]	IC50 [5] [nM]	Compound	αvβ6 pIC50 (mean affinity, cell Adhesion Assay) [1]	αvβ8 pIC50 (mean affinity, cell Adhesion Assay) [2]	αvβ3 pIC50 (mean affinity, cell Adhesion Assay) [5]	αvβ1 pIC50 (mean affinity, cell Adhesion Assay) [3]	αvβ5 pIC50 (mean affinity, cell Adhesion Assay) [4]
15.8 nM	100	1000	100		O=C(O)C[C@H](CN1CC[C@@](F)(CCc2ccc3c(n2)NCCC3)C1)c1cccc(OC[C@@H]2CCCO2)c1 [Example 2, (S)-4-((S)-3-Fluoro-3-(2-(5,6,7,8-tetrahydro-1,8-naphthyridin-2-yl)ethyl)pyrrolidin-1-yl)-3-(3-(((S)-tetrahydrofuran-2-yl)methoxy)phenyl)butanoic acid]					
12.6 nM	39.8	126	316	63.1	CO[C@@H](C)COc1cccc([C@H](CC(=O)O)CN2CC[C@@](F)(CCc3ccc4c(n3)NCCC4)C2)c1 [Example 6]					
					O=C(O)/C=C\C(=O)O.O=C(O)C[C@H](CN1CC[C@@](F)(CCc2ccc3c(n2)NCCC3)C1)c1cccc(O[C@@H]2CCOC2)c1 [Example 17, (S)-4-((S)-3-Fluoro-3-(2-(5,6,7,8-tetrahydro-1,8-naphthyridin-2-yl)ethyl)pyrrolidin-1-yl)-3-(3-(((R)-tetrahydrofuran-3-yl)oxy)phenyl)butanoic acid (1:1) maleate salt]	8.2	7.7	7.3	6.9	8.1
25.1 nM	158	2000	25.1	501	COCCOc1ccc(F)c(C(CC(=O)O)CN2CC[C@@](F)(CCc3ccc4c(n3)NCCC4)C2)c1 (stereo partly drawn) [Example 14, 4-((S)-3-Fluoro-3-(2-(5,6,7,8-tetrahydro-1,8-naphthyridin-2-yl)ethyl)pyrrolidin-1-yl)-3-(2-fluoro-5-(2-methoxyethoxy)phenyl)butanoic acid]					
		126	126		O=C(O)C[C@H](CN1CC[C@@](F)(CCc2ccc3c(n2)NCCC3)C1)c1cccc(C2CCOC2)c1 (single isomer, unassigned; isomer 2) [Example 11]					
12.6 nM	31.6	398	63.1	100	O=C(O)C[C@H](CN1CC[C@@](F)(CCc2ccc3c(n2)NCCC3)C1)c1cccc(OC2COC2)c1 [Example 8, (S)-4-((S)-3-Fluoro-3-(2-(5,6,7,8-tetrahydro-1,8-naphthyridin-2-yl)ethyl)pyrrolidin-1-yl)-3-(3-(oxetan-3-yloxy)phenyl)butanoic acid]					
20 nM	50.1	63.1	63.1	79.4	COCC(C)(C)Oc1cccc([C@H](CC(=O)O)CN2CC[C@@](F)(CCc3ccc4c(n3)NCCC4)C2)c1 [Example 7, (S)-4-((S)-3-Fluoro-3-(2-(5,6,7,8-tetrahydro-1,8-naphthyridin-2-yl)ethyl)pyrrolidin-1-yl)-3-(3-((1-methoxy-2-methylpropan-2-yl)oxy)phenyl)butanoic acid]					
12.6 nM	31.6	200	25.1	31.6	CO[C@H](C)COc1cccc([C@H](CC(=O)O)CN2CC[C@@](F)(CCc3ccc4c(n3)NCCC4)C2)c1 [Example 5]					
15.8 nM	25.1	251	31.6	63.1	O=C(O)C[C@H](CN1CC[C@@](F)(CCc2ccc3c(n2)NCCC3)C1)c1cccc(OCC2COC2)c1 [Example 12, (S)-4-((S)-3-Fluoro-3-(2-(5,6,7,8-tetrahydro-1,8-naphthyridin-2-yl)ethyl)pyrrolidin-1-yl)-3-(3-(oxetan-3-ylmethoxy)phenyl)butanoic acid]					
25.1 nM	100	2000	251	79.4	O=C(O)C[C@H](CN1CC[C@@](F)(CCc2ccc3c(n2)NCCC3)C1)c1cccc(OC[C@H]2CCCO2)c1 [Example 1, (S)-4-((S)-3-Fluoro-3-(2-(5,6,7,8-tetrahydro-1,8-naphthyridin-2-yl)ethyl)pyrrolidin-1-yl)-3-(3-(((R)-tetrahydrofuran-2-yl)methoxy)phenyl)butanoic acid]					
					O=C(O)/C=C\C(=O)O.O=C(O)C[C@H](CN1CC[C@@](F)(CCc2ccc3c(n2)NCCC3)C1)c1cccc(O[C@H]2CCOC2)c1 [Example 19, (S)-4-((S)-3-Fluoro-3-(2-(5,6,7,8-tetrahydro-1,8-naphthyridin-2-yl)ethyl)pyrrolidin-1-yl)-3-(3-(((S)-tetrahydrofuran-3-yl)oxy)phenyl)butanoic acid (1:1) maleate salt]	8.2	7.4	7.3	6.6	7.5
10 nM	50.1	1000			COCCOc1cc(OCCOC)cc([C@H](CC(=O)O)CN2CC[C@@](F)(CCc3ccc4c(n3)NCCC4)C2)c1 [Example 9, (S)-3-(3,5-Bis(2-methoxyethoxy)phenyl)-4-((S)-3-fluoro-3-(2-(5,6,7,8-tetrahydro-1,8-naphthyridin-2-yl)ethyl)pyrrolidin-1-yl)butanoic acid]					
10 nM and 12.6 nM		316	39.8	20	O=C(O)C[C@H](CN1CC[C@@](F)(CCc2ccc3c(n2)NCCC3)C1)c1cccc(OC2CCOCC2)c1 [Example 15, (S)-4-((S)-3-Fluoro-3-(2-(5,6,7,8-tetrahydro-1,8-naphthyridin-2-yl)ethyl)pyrrolidin-1-yl)-3-(3-((tetrahydro-2H-pyran-4-yl)oxy)phenyl)butanoic acid]					
					O=C(O)CC(O)(CC(=O)O)C(=O)O.O=C(O)C[C@H](CN1CC[C@@](F)(CCc2ccc3c(n2)NCCC3)C1)c1cccc(O[C@@H]2CCOC2)c1 [Example 16, (S)-4-((S)-3-Fluoro-3-(2-(5,6,7,8-tetrahydro-1,8-naphthyridin-2-yl)ethyl)pyrrolidin-1-yl)-3-(3-(((R)-tetrahydrofuran-3-yl)oxy)phenyl)butanoic acid (1:1) citrate salt]			7.6	6.8	7.4
12.6 nM	20	398	79.4	63.1	O=C(O)C[C@H](CN1CC[C@@](F)(CCc2ccc3c(n2)NCCC3)C1)c1cccc(C2CCOC2)c1 (single isomer, unassigned; isomer 1) [Example 10]					
					O=C(O)CC(O)(CC(=O)O)C(=O)O.O=C(O)C[C@H](CN1CC[C@@](F)(CCc2ccc3c(n2)NCCC3)C1)c1cccc(O[C@H]2CCOC2)c1 [Example 18, (S)-4-((S)-3-Fluoro-3-(2-(5,6,7,8-tetrahydro-1,8-naphthyridin-2-yl)ethyl)pyrrolidin-1-yl)-3-(3-(((S)-tetrahydrofuran-3-yl)oxy)phenyl)butanoic acid (1:1) citrate salt]	8.3	7.7	7.3	6.4	7.5

Compound	IC50 [1]	IC50 [2] [nM]	IC50 [3] [nM]	IC50 [4] [nM]	IC50 [5] [nM]	αvβ6 pIC50 (mean affinity, cell Adhesion Assay) [1]	αvβ8 pIC50 (mean affinity, cell Adhesion Assay) [2]	αvβ3 pIC50 (mean affinity, cell Adhesion Assay) [5]	αvβ1 pIC50 (mean affinity, cell Adhesion Assay) [3]	αvβ5 pIC50 (mean affinity, cell Adhesion Assay) [4]
O=C(O)C[C@H](CN1CC[C@@](F)(CCc2ccc3c(n2)NCCC3)C1)c1cccc(O[C@H]2CCOC2)c1 [Example 4, (S)-4-((S)-3-Fluoro-3-(2-(5,6,7,8-tetrahydro-1,8-naphthyridin-2-yl)ethyl)pyrrolidin-1-yl)-3-(3-(((S)-tetrahydrofuran-3-yl)oxy)phenyl)butanoic acid]	5.01 nM	31.6	100	79.4	50.1					
O=C(O)C[C@H](CN1CC[C@@](F)(CCc2ccc3c(n2)NCCC3)C1)c1cccc(O[C@@H]2CCOC2)c1 [Example 3, (S)-4-((S)-3-Fluoro-3-(2-(5,6,7,8-tetrahydro-1,8-naphthyridin-2-yl)ethyl)pyrrolidin-1-yl)-3-(3-(((R)-tetrahydrofuran-3-yl)oxy)phenyl)butanoic acid]	5.01 nM	50.1	200	39.8	100					
